The results in this text go back to patent publication US20090325871A1, “Role of the Mk2 Pathway in Wound Repair” (priority 2006, published 2009).

Common to all, as to type: cell-based, mouse
Assay [1] concerns SRE promoter. The experiment in a line: SRE-luciferase promoter-reporter assay in MK2−/− MEF. The settings on record: TGFβ 1 ng/mL. How it is done:
(§1) For SRE promoter-reporter assays WT and MK2^−/− MEF, were transfected with the SRE.L-luciferase vector which contains two copies of SRE.L, a derivative of c-fos serum response element driving the expression of luciferase. The SRE.L vector was introduced alone in the case of WT MEF, and co-transfected with pMEpuro (a selection vector which confers resistance to puromycin to eukaryotic cells) in the case of MK2^−/− MEF. The vectors were introduced (5 μg of SRE.L, and 0.5 μg pMEpuro) into MEF using lipofectamine. Stable transfected WT MEF cell lines were obtained by selection with geneticin, and resistant colonies were isolated, expanded, and then screened for baseline luciferase activity. Since the MK2^−/− MEF were already resistant to geneticin, stable transfectants produced by co-transfection with pMEpuro were selected with puromycin, and resistant clones were isolated and expanded as above. The firefly luciferase activity was assayed using a kit from Promega (Madison, Wis.) according to the manufacturer's instructions. In brief, cells were lysed and the substrate (beetle luciferin) was added to the lysate. Next, chemiluminescence was measured using a luminometer.
Since MK2 has been reported to phosphorylate SRF, whether the effect of MK2 suppression on smα expression is due to its effect on the SRE promoter was tested. […]
(Reporter assays use an easily measured gene product as a stand-in for the process of interest.)

The test system of assay [2] is SRE promoter. Description: SRE-luciferase promoter-reporter assay in WT MEF. The note with it: TGFβ 1 ng/mL. How it is done:
as §1
Since smα induction by several agents including TGFβ has been reported to occur through activation of serum response elements (SRE) in the smα promoter, whether this activation occurs in WT MEF was tested.

Assay [3] has as its system MK2−/− MEF. The experiment in a line: smα-actin protein level by Western blot in MK2−/− MEF. The settings on record: TGFβ 1 ng/mL for 24 hours. Here is the method: (§2) Aliquots from the cell lysates prepared as described above were assayed for protein using the Bradford protein assay and then diluted with 2× Laemmli loading buffer for SDS-PAGE. Equal amounts of protein were then loaded in each well of 4-20% Tris/glycine gels. After electrophoresis for 90 min at 125 V constant voltage, the gel was blotted onto an Immobilon-P membrane by electrophoretic transfer at 25 V constant voltage overnight. The membrane was then washed, blocked with 5% milk, and probed with antibodies against MK2 (Cell Signaling, Beverly, Mass.) smα (Sigma, St. Louis, Mo.) or pan-actin (Santa Cruz, Santa Cruz, Calif.). The immunoreactive bands were visualized using a secondary antibody conjugated to horseradish peroxidase (Pierce, Rockford, Ill.).and a chemiluminescent substrate according to the manufacturer's instructions (SuperSignal, Pierce, Rockford, Ill.). The intensity of the bands was quantified using a UnScanIt software (Orem, Utah).
(§3) TGFβhas been implicated in the fibrotic response because of its ability to induce differentiation of fibroblasts into myofibroblasts. Whether TGFβ can induce myofibroblast differentiation in both WT MEF and MK2^−/− MEF was tested. Cells were growth arrested in serum free media for 24 hr then exposed to TGFβ (1 ng/mL).
On the technique in general: A western blot detects proteins with antibodies after separation by electrophoresis.

Assay [4] relates to WT MEF. Description: procollagen type I α1 mRNA level by RT-PCR in WT MEF. The settings on record: TGFβ 1 ng/mL for 24 hours. Here is the method:
(§4) Semiquantitative RT-PCR to measure mRNA in mouse MEF was used. In brief, RNA was isolated from treated or untreated MEF using the RNeasy kit (Qiagen, Valencia, Calif.) according to manufacturesr's instructions. The amount of RNA was determined spectrophotometrically, and equal amounts were used to generate cDNA by reverse transcription using the Superscript III system (Invitrogen, Carlsbad, Calif.) according to manufacturer's instructions. Next an equal volume of the cDNA was added to a master mix containing the following primers. For sma, the primers 5′-GCATCCACGAAACCACCTA-3′ and 5′-[…]-3′ were used to generate a 418 bp PCR product from mouse smooth muscle α-actin cDNA. For β-actin, the primers 5′-[…]-3′ and 5′-[…]-3′) were used to generate 348 bp product from mouseβ-actin cDNA. The primers 5′-[…]-3′ and 5′-[…]3′ were used to generate a 142 bp product from mouse procollagen type I alpha 1 cDNA. The PCR reaction was carried out as using a Bio-Rad I-cycler thermal cycler (Hercules, Calif.). […] After staining with ethidium bromide, photographs of the gels were taken, scanned, and the intensity of the bands was measured using UnScanIt software (Orem, Utah). The relative amount of smα and procollagen RNA was determined by dividing the intensity of their corresponding PCR product band by the intensity of the β-actin PCR product band.

Assay [5] deals with MK2−/− MEF. Description: procollagen type I α1 mRNA level by RT-PCR in MK2−/− MEF. The note with it: TGFβ 1 ng/mL for 24 hours. How it is done: as §4
The subject of assay [6] is WT MEF. The experiment in a line: smα mRNA level by semiquantitative RT-PCR in WT MEF. The note with it: TGFβ 1 ng/mL for 24 hours. Here is the method:
as §4

For assay [7], the system named is MK2−/− MEF. The experiment in a line: smα mRNA level by semiquantitative RT-PCR in MK2−/− MEF. The settings on record: TGFβ 1 ng/mL for 24 hours. Here is the method:
as §4

In assay [8] the test system is WT MEF. Description: smα-actin protein level by Western blot in WT MEF. The settings on record: TGFβ 1 ng/mL for 24 hours. Here is the method:
as §2, §3

Setting [9] is: SB-203580 1 μM, measured at 6 hours.
Setting [10] is: greatest after 6 hours, baseline by 24 hours.

“Also recorded” adds a separate entry of the source.

For the molecule `C[S+]([O-])c1ccc(-c2nc(-c3ccncc3)c(-c3ccc(F)cc3)[nH]2)cc1` (stereo not shown) [SB-203580, reference compound], the “block of TGFβ activation of SRE-luciferase promoter” value in assay [1] (setting [9]) is recorded as “completely blocked”; in assay [2] (setting [9]), “partially blocked”.

On to TGFβ, for which the figures for the smα-actin protein level result in assay [3] and in assay [8] were “did not respond to TGFβ by increasing smα-actin; also recorded: produce even less smα” and “smα-actin level increased; also recorded: produce more sma”, respectively. Moreover, the SRE-luciferase promoter activity entry in assay [1] (setting [10]) and in assay [2] (setting [10]) was “SRE promoter activity increased; also recorded: caused activation” throughout. Further, the “procollagen type I α1 mRNA level” value in assay [4] was “did not appear to alter”; in assay [5], “did not appear to alter; also recorded: did not suppress”. Besides, the “smα mRNA level” value was “increased; also recorded: appeared to increase” in assay [6] and “significantly reduced; also recorded: significantly decreased” in assay [7].
